Laboratory results from patent US10689343B2, “Inhibitors of tryptophan 2,3-dioxygenase” (NETHERLANDS TRANSLATIONAL RESEARCH CENTER B.V., priority 2016, dated 2020).
pIC50: −log10 of the molar value. Values joined by “and” are separate entries in the source; they are usually repeats but may differ in a detail not shown here. Equal values may be shown once. Read-outs that look alike come from different tables or passages of the source.

Columns and labels:
[1] = molecular target: T1, TDO in SW48 colorectal carcinoma cells (Homo sapiens, UniProt P48775); experiment: Cell-based assay for TDO in SW48 colorectal carcinoma cells (NFK GreenScreen); settings: 18 hours with L-tryptophan
T1 construct: Endogenous expression of TDO has been determined in a variety of cancer cell lines; host or cells: SW48 colorectal carcinoma cells
T1 sequence (P48775 whole entry): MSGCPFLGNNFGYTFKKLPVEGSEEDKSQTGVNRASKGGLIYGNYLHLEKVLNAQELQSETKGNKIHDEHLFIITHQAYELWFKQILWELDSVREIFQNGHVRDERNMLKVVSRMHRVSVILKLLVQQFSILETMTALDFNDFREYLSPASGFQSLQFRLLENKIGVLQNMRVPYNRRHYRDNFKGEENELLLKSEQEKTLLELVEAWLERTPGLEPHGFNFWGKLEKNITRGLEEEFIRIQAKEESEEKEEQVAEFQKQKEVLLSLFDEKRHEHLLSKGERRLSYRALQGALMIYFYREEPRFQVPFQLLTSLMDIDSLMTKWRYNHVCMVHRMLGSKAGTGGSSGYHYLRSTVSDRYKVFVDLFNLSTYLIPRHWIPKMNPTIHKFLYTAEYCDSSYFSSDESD

[2] = molecular target: CYP3A4 (Homo sapiens, UniProt P08684); experiment: P450-Glo CYP3A4 luciferin isopropylacetal (Luc-IP) assay
Chain of CYP3A4 (P08684 whole entry): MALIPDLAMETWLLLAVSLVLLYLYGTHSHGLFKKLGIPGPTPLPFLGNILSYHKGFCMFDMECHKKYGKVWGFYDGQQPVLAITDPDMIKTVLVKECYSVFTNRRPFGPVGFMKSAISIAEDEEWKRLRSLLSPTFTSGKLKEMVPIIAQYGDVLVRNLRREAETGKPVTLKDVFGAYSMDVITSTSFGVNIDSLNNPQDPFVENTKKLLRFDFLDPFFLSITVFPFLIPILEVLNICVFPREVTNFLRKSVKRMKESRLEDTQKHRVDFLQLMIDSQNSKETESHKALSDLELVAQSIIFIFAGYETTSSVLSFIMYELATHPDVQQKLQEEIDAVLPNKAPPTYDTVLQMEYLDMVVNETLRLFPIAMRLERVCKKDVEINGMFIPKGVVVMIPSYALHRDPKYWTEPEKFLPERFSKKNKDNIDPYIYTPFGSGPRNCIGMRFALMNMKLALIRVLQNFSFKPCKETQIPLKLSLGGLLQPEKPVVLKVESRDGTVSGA

[3] = molecular target: CYP2D6 (Homo sapiens, UniProt P10635); experiment: P450-Glo CYP2D6 Luc-IP assay
Chain of CYP2D6 (P10635 whole entry): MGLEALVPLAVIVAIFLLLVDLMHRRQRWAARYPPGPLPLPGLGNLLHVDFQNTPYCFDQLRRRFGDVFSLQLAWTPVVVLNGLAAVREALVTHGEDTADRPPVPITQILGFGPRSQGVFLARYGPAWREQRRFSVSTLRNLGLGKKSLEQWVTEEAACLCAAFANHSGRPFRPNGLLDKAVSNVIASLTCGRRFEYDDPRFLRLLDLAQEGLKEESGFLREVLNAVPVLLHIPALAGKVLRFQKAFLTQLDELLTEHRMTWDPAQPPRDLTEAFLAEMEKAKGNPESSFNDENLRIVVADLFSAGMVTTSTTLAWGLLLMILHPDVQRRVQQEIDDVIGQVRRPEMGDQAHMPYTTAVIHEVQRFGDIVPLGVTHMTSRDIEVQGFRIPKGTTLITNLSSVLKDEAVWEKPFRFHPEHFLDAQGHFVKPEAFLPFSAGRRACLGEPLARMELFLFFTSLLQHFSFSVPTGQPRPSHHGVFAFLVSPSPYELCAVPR

[4] = molecular target: T2, Recombinant TDO (Homo sapiens, UniProt P48775); experiment: Biochemical assay for TDO (NFK GreenScreen); settings: 50 nM TDO, 200 μM L-tryptophan
T2 construct: Recombinant TDO (Seegers, N., et al.) and all other assay components were diluted in TDO reaction buffer
T2 sequence (P48775 whole entry): as the sequence (P48775 whole entry) above
How it was run: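 Recombinant human TDO (50 nM) preincubated with compound 60 min at room temperature in 100 mM NaH2PO4 pH 7.0, 0.02% Tween-20, with ascorbic acid. Reaction then run 15 min with 200 μM L-tryptophan (final), 0.3% DMSO. NFK product detected by NFK Green fluorescence after 3 h at 37° C; IC50 derived.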

Compound	pIC50 ([1]; read-out: IC50 on TDO in cells)	pIC50 [2]	pIC50 [3]	pIC50 [4]	pIC50 ([1]; IC50 on TDO in cells)
CN1CCN(CCCNC(=O)c2ccc(-c3c[nH]c4cc(F)ccc34)cc2Cl)CC1 [Example 72, 2-Chloro-4-(6-fluoro-1H-indol-3-yl)-N-[3-(4-methylpiperazin-1-yl)propyl]benzamide]	≥ 6.70	5.00 to 5.30	5.00 to 5.30	> 6.00	–
O=C(CC1CNCCO1)Nc1ccc(-c2c[nH]c3cc(F)ccc23)cc1 (stereo not shown) [Example 102, N-[4-(6-fluoro-1H-indol-3-yl)phenyl]-2-morpholin-2-yl-acetamide]	≥ 6.30 and 6.30 to 6.70	5.00 to 5.30	< 5.00	> 6.00	–
CC(C)NC(=O)c1ccc(-c2c[nH]c3cc(F)ccc23)cc1 [Example 2, 4-(6-Fluoro-1H-indol-3-yl)-N-isopropyl-benzamide]	≥ 6.70	< 5.00	< 5.00	> 6.00	–
CN(C)CCCNC(=O)c1c(F)cc(-c2c[nH]c3cc(F)ccc23)cc1F [Example 59, N-[3-(dimethylamino)propyl]-2,6-difluoro-4-(6-fluoro-1H-indol-3-yl)benzamide]	≥ 6.30 and 6.30 to 6.70	< 5.00	< 5.00	> 6.00	–
O=C(NC[C@@H]1CCCNC1)c1ccc(-c2c[nH]c3cc(F)ccc23)cc1 [Example 42, 4-(6-Fluoro-1H-indol-3-yl)-N-[[(3R)-3-piperidyl]methyl]benzamide]	≥ 6.30 and 6.30 to 6.70	5.00 to 5.30	< 5.00	> 6.00	–
O=C(NC[C@H]1CCCNC1)c1ccc(-c2c[nH]c3cc(F)ccc23)cc1 [Example 94, 4-(6-Fluoro-1H-indol-3-yl)-N-[[(3S)-3-piperidyl]methyl]benzamide]	≥ 6.30 and 6.30 to 6.70	5.00 to 5.30	< 5.00	> 6.00	–
O=C(N[C@H]1CCCNC1)c1ccc(-c2c[nH]c3cc(F)ccc23)cc1Cl [Example 55, 2-Chloro-4-(6-fluoro-1H-indol-3-yl)-N-[(3S)-3-piperidyl]benzamide]	≥ 6.70	5.00 to 5.30	< 5.00	> 6.00	–
N[C@@H]1CCC[C@H](C(=O)Nc2ccc(-c3c[nH]c4cc(F)ccc34)cc2)C1 [Example 105, (1S,3R)-3-amino-N-[4-(6-fluoro-1H-indol-3-yl)phenyl]cyclohexanecarboxamide]	≥ 6.30 and 6.30 to 6.70	< 5.00	< 5.00	> 6.00	–
CS(=O)(=O)CC(=O)Nc1ccc(-c2c[nH]c3cc(F)ccc23)cc1 [Example 80, N-[4-(6-fluoro-1H-indol-3-yl)phenyl]-2-methylsulfonyl-acetamide]	≥ 6.70	< 5.00	< 5.00	5.30 to 6.00	–
CC(CO)(CO)NC(=O)c1ccc(-c2c[nH]c3cc(F)ccc23)cc1 [Example 48, 4-(6-Fluoro-1H-indol-3-yl)-N-[2-hydroxy-1-(hydroxymethyl)-1-methyl-ethyl]benzamide]	≥ 6.30 and 6.30 to 6.70	< 5.00	< 5.00	> 6.00	–
O=C(N[C@@H]1CCCNC1)c1ccc(-c2c[nH]c3cc(F)ccc23)cc1 [Example 36, 4-(6-Fluoro-1H-indol-3-yl)-N-[(3R)-3-piperidyl]benzamide]	≥ 6.30 and 6.30 to 6.70	< 5.00	< 5.00	> 6.00	–
C[C@@H](CO)NC(=O)c1ccc(-c2c[nH]c3cc(F)ccc23)cc1 [Example 15, 4-(6-fluoro-1H-indol-3-yl)-N-[(1S)-2-hydroxy-1-methyl-ethyl]benzamide]	–	< 5.00	< 5.00	> 6.00	≥ 6.70
CN1CCC(NC(=O)c2ccc(-c3c[nH]c4cc(F)ccc34)cc2)CC1 [Example 24, 4-(6-Fluoro-1H-indol-3-yl)-N-(1-methyl-4-piperidyl)benzamide]	≥ 6.70	< 5.00	< 5.00	> 6.00	–
CCN(CC)CC(C)NC(=O)c1ccc(-c2c[nH]c3cc(F)ccc23)cc1Cl (stereo not shown) [Example 73, 2-Chloro-N-[2-(diethylamino)-1-methyl-ethyl]-4-(6-fluoro-1H-indol-3-yl)benzamide]	≥ 6.70	< 5.00	< 5.00	> 6.00	–
C[C@H](CO)NC(=O)c1ccc(-c2c[nH]c3cc(F)ccc23)cc1Cl [Example 51, 2-Chloro-4-(6-fluoro-1H-indol-3-yl)-N-[(1R)-2-hydroxy-1-methyl-ethyl]benzamide]	≥ 6.30 and 6.30 to 6.70	< 5.00	< 5.00	> 6.00	–
N#CC1(NC(=O)c2ccc(-c3c[nH]c4cc(F)ccc34)cc2)CC1 [Example 12, N-(1-cyanocyclopropyl)-4-(6-fluoro-1H-indol-3-yl)benzamide]	≥ 6.30 and 6.30 to 6.70	< 5.00	< 5.00	> 6.00	–

Compound	pIC50 ([1]; read-out: IC50 on TDO in cells)	pIC50 [2]	pIC50 [3]	pIC50 [4]	pIC50 ([1]; IC50 on TDO in cells)
CCN(CC)CC(C)NC(=O)c1ccc(-c2c[nH]c3cc(F)ccc23)cc1 (stereo not shown) [Example 23, N-[2-(diethylamino)-1-methyl-ethyl]-4-(6-fluoro-1H-indol-3-yl)benzamide]	≥ 6.70	5.00 to 5.30	< 5.00	> 6.00	–
CN1CCN(CC(=O)Nc2ccc(-c3c[nH]c4cc(F)ccc34)cc2)CC1 [Example 109, N-[4-(6-fluoro-1H-indol-3-yl)phenyl]-2-(4-methylpiperazin-1-yl)acetamide]	≥ 6.30 and 6.30 to 6.70	< 5.00	< 5.00	> 6.00	–
CC(C)[C@@H](CO)NC(=O)c1ccc(-c2c[nH]c3cc(F)ccc23)cc1 [Example 3, 4-(6-Fluoro-1H-indol-3-yl)-N-[(1S)-1-(hydroxymethyl)-2-methyl-propyl]benzamide]	≥ 6.30 and 6.30 to 6.70	< 5.00	< 5.00	> 6.00	–
C[C@@H](CO)NC(=O)c1c(F)cc(-c2c[nH]c3cc(F)ccc23)cc1F [Example 60, 2,6-Difluoro-4-(6-fluoro-1H-indol-3-yl)-N-[(1S)-2-hydroxy-1-methyl-ethyl]benzamide]	≥ 6.30 and 6.30 to 6.70	< 5.00	< 5.00	> 6.00	–
O=C(NCC1(O)CCC1)c1ccc(-c2c[nH]c3cc(F)ccc23)cc1 [Example 62, 4-(6-Fluoro-1H-indol-3-yl)-N-[(1-hydroxycyclobutyl)methyl]benzamide]	≥ 6.30 and 6.30 to 6.70	5.00 to 5.30	< 5.00	> 6.00	–
C[C@H](NC(=O)c1ccc(-c2c[nH]c3cc(F)ccc23)cc1)c1nnc2ccccn12 [Example 45, 4-(6-Fluoro-1H-indol-3-yl)-N-[(1S)-1-([1,2,4]triazolo[4,3-a]pyridin-3-yl)ethyl]benzamide]	≥ 6.30 and 6.30 to 6.70	5.00 to 5.30	< 5.00	5.30 to 6.00	–
CN1CCC(O)(CNC(=O)c2ccc(-c3c[nH]c4cc(F)ccc34)cc2)CC1 [Example 63, 4-(6-Fluoro-1H-indol-3-yl)-N-[(4-hydroxy-1-methyl-4-piperidyl)methyl]benzamide]	≥ 6.30 and 6.30 to 6.70	< 5.00	< 5.00	> 6.00	–
O=C(NC[C@@H]1CCCN1)c1ccc(-c2c[nH]c3cc(F)ccc23)cc1 [Example 84, 4-(6-Fluoro-1H-indol-3-yl)-N-[[(2S)-pyrrolidin-2-yl]methyl]benzamide]	≥ 6.70	< 5.00	< 5.00	> 6.00	–
O=C(NC1CCCNCC1)c1ccc(-c2c[nH]c3cc(F)ccc23)cc1 (stereo not shown) [Example 83, N-(azepan-4-yl)-4-(6-fluoro-1H-indol-3-yl)benzamide]	≥ 6.70	< 5.00	< 5.00	> 6.00	–
CC(CN(C)C)NC(=O)c1ccc(-c2c[nH]c3cc(F)ccc23)cc1 (stereo not shown) [Example 1, N-[2-(dimethylamino)-1-methyl-ethyl]-4-(6-fluoro-1H-indol-3-yl)benzamide]	≥ 6.70	< 5.00	< 5.00	> 6.00	–
O=C(NCCN1CCCC1)c1ccc(-c2c[nH]c3cc(F)ccc23)cc1 [Example 77, 4-(6-Fluoro-1H-indol-3-yl)-N-(2-pyrrolidin-1-ylethyl)benzamide]	≥ 6.70	< 5.00	< 5.00	> 6.00	–
CN1CCCC(NC(=O)c2ccc(-c3c[nH]c4cc(F)ccc34)cc2)C1 (stereo not shown) [Example 25, 4-(6-Fluoro-1H-indol-3-yl)-N-(1-methyl-3-piperidyl)benzamide]	≥ 6.70	< 5.00	< 5.00	> 6.00	–
N[C@H]1CC[C@@H](C(=O)Nc2ccc(-c3c[nH]c4cc(F)ccc34)cc2)C1 [Example 106, (1R,3S)-3-amino-N-[4-(6-fluoro-1H-indol-3-yl)phenyl]cyclopentanecarboxamide]	≥ 6.30 and 6.30 to 6.70	5.00 to 5.30	< 5.00	> 6.00	–
CC(C)[C@H](C)NC(=O)c1ccc(-c2c[nH]c3cc(F)ccc23)cc1 [Example 49, N-[(1S)-1,2-dimethylpropyl]-4-(6-fluoro-1H-indol-3-yl)benzamide]	≥ 6.30 and 6.30 to 6.70	< 5.00	< 5.00	> 6.00	–
N[C@H]1CC[C@@H](NC(=O)c2ccc(-c3c[nH]c4cc(F)ccc34)cc2)CC1 [Example 61, N-(cis-4-aminocyclohexyl)-4-(6-fluoro-1H-indol-3-yl)benzamide]	≥ 6.30 and 6.30 to 6.70	5.00 to 5.30	< 5.00	> 6.00	–
